According to US20250171459A1, “2-METHYL-4',5'-DIHYDROSPIRO[PIPERIDINE-4,7'-THIENO[2,3-C]PYRAN] DERIVATIVES AS INHIBITORS OF APOL1 AND METHODS OF USING SAME” (Vertex Pharmaceuticals Incorporated, priority 2022, published 2025):

What follows are compounds tested against T1, APOL1 (Homo sapiens, UniProt O14791) (assay: MultiTox-Fluor Multiplex Cytotoxicity Assay in tet-inducible APOL1 T-REx-HEK293 cells (cell rescue, ratio of dead to live cells)). Conditions: tet-inducible transgenic APOL1 T-REx-HEK293 cell lines, 50 ng/mL tet, 24 hours; read-out: IP50 (i.e., IC50 for cell proliferation).
T1 sequence (O14791 1-398 S342G/I384M): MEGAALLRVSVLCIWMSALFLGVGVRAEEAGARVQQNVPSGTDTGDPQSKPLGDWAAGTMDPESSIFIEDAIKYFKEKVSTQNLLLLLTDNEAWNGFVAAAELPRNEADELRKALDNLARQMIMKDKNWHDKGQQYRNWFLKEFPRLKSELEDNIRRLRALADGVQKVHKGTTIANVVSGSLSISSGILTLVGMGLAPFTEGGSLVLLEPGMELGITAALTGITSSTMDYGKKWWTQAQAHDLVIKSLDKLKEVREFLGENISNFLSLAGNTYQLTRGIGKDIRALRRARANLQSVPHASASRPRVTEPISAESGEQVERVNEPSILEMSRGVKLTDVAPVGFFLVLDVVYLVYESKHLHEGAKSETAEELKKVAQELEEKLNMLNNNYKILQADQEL
Assay type: cell-based
In short: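 T-REx-HEK293 cells with tet-inducible APOL1 were treated with compound (10 μM top, 10-point 3-fold dilution, duplicate) plus 50 ng/mL tetracycline for 24 h at 37° C, in DMEM with 2% tet-free FBS. MultiTox-Fluor protease signals gave a dead/live ratio, normalized to no tet (100% viability) and tet alone (0%).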
`Cc1ncccc1CN1CC[C@]2(C[C@@H]1C)OCCc1cc(Cl)sc12` [Compound 674] gave an IC50 of 500 to 1000 nM.
Work on `CCc1cc2c(s1)CCO[C@@]21CCN(C[C@H]2C[C@@H](NC(=O)C3CC(=O)N(C)C3)C2)[C@@H](C)C1` (stereo partly drawn) [Compound 362] yielded an IC50 of 100 to 500 nM.
Compound `C[C@H]1C[C@@]2(CCN1Cc1cnn(CC(O)C3CCC3)c1)OCCc1c2sc(C(F)(F)F)c1CO` (stereo partly drawn) [Compound 944] has an IC50 of less than 100 nM.
`C[C@H]1C[C@@]2(CCN1C[C@H]1C[C@@H](NC(=O)C3CC3)C1)OCCc1cc(CC(F)F)sc12` [Compound 556] was tested, and the IC50 was less than 100 nM.
Work on `CCc1cc2c(s1)CCO[C@@]21CCN(Cc2cn(CCN3C(=O)CCC3=O)nn2)[C@@H](C)C1` [Compound 173] yielded an IC50 of 100 to 500 nM.
`C[C@H]1C[C@@]2(CCN1CC1(C)COC1)OCCc1cc(Cl)sc12` [Compound 676] showed an IC50 of 100 to 500 nM.
Compound `CCc1cc2c(s1)CCO[C@@]21CCN(Cc2cn(C(C)c3nnc4n3CCC4)nn2)[C@@H](C)C1` (stereo partly drawn) [Compound 186] has an IC50 of 100 to 500 nM.
For `C[C@H]1C[C@@]2(CCN1Cc1cnn(CCS(C)(=O)=O)c1)OCCc1c2sc(C(F)(F)F)c1CO` [Compound 872, [(2′S,7R)-2′-methyl-1′-[[1-(2-methylsulfonylethyl)pyrazol-4-yl]methyl]-2-(trifluoromethyl)spiro[4,5-dihydrothieno[2,3-c]pyran-7,4′-piperidine]-3-yl]methanol], the IC50 was less than 100 nM.
Compound `CCc1cc2c(s1)CCO[C@@]21CCN(Cc2cn(CCS(=O)(=O)C(C)(C)C)nn2)[C@@H](C)C1` [Compound 159] has an IC50 of 100 to 500 nM.
Compound `CCc1cc2c(s1)[C@]1(CCN(Cc3cnn(CCS(C)(=O)=O)c3)[C@@H](C)C1)OCC2O` (stereo partly drawn) [Compound 1037, (2′S, 7R)-2-ethyl-2′-methyl-1′-[[1-(2-methylsulfonylethyl)pyrazol-4-yl]methyl]spiro[4,5-dihydrothieno[2,3-c]pyran-7,4′-piperidine]-4-ol] has an IC50 of less than 100 nM.
`CCc1cc2c(s1)CCO[C@@]21CCN(Cc2cn(CC3(CO)CCOCC3)nn2)[C@@H](C)C1` [Compound 79] showed an IC50 of 100 to 500 nM.
With `COc1cccc(CN2CC[C@]3(C[C@@H]2C)OCCc2cc(Cl)sc23)n1` [Compound 689] the IC50 was 500 to 1000 nM.
`CC(=O)Nc1ccc(CN2CC[C@]3(C[C@@H]2C)OCCc2cc(Cl)sc23)cc1` [Compound 635] was tested, and the IC50 was less than 100 nM.
`CCc1cc2c(s1)CCOC21CCN(Cc2ccc(N(C)S(C)(=O)=O)nc2)CC1` [Compound 1071] was tested, and the IC50 was 100 to 500 nM.
Work on `CCc1cc2c(s1)CCO[C@@]21CCN(Cc2ccc(N[C@H]3CC[C@H](O)C3)nc2)[C@@H](C)C1` [Compound 205] yielded an IC50 of less than 100 nM.
`CCc1cc2c(s1)CCO[C@@]21CCN(CC2CN(C(=O)c3ccon3)C2)[C@@H](C)C1` [Compound 425] showed an IC50 of less than 100 nM.
`CCc1cc2c(s1)CCO[C@@]21CCN(Cc2cn(CCc3ncn[nH]3)nn2)[C@@H](C)C1` [Compound 67] gave an IC50 of less than 100 nM.
In the case of `CCc1cc2c(s1)C(CC)COC21CCN(Cc2cn(CCS(C)(=O)=O)nn2)CC1` (stereo not drawn) [Compound 1182, 2,7-diethyl-1′-[[1-(2-methylsulfonylethyl)triazol-4-yl]methyl]spiro[6,7-dihydrothieno[3,2-c]pyran-4,4′-piperidine]], the IC50 is reported as 500 to 1000 nM.
`CCc1cc2c(s1)CCO[C@@]21CCN(C[C@H]2C[C@@H](NC(=O)C3CC(C)(O)C3)C2)[C@@H](C)C1` (stereo partly drawn) [Compound 344] gave an IC50 of less than 100 nM.
Work on `C[C@H]1C[C@@]2(CCN1Cc1cnn(CC(=O)N(C)C)c1)OCCc1cc(Cl)sc12` [Compound 700] yielded an IC50 of less than 100 nM.
`CCc1cc2c(s1)CCO[C@@]21CCN(Cc2cn(C3CCN(S(C)(=O)=O)CC3)nn2)[C@@H](C)C1` [Compound 20] was tested, and the IC50 was 100 to 500 nM.
In the case of `C[C@H]1C[C@@]2(CCN1Cc1cnn(C[C@@H](O)C(C)(C)O)c1)OCCc1c2sc(C(F)(F)F)c1CO` [Compound 888, (2R)-1-[4-[[(2′S, 7R)-3-(hydroxymethyl)-2′-methyl-2-(trifluoromethyl)spiro[4,5-dihydrothieno[2,3-c]pyran-7,4′-piperidine]-1′-yl]methyl]pyrazol-1-yl]-3-methyl-butane-2,3-diol], the IC50 is reported as less than 100 nM.
`Cc1cc2c(s1)CCO[C@@]21CCN(CC(O)C(N)=O)[C@@H](C)C1` (stereo partly drawn) [Compound 502] was tested, and the IC50 was 100 to 500 nM.
`CCc1cc2c(s1)CCO[C@@]21CCN(Cc2cn(CC(C)(O)c3ccccc3)nn2)[C@@H](C)C1` (stereo partly drawn) [Compound 93] gave an IC50 of 500 to 1000 nM.
Compound `C[C@H]1C[C@@]2(CCN1Cc1ccc(N3CCCC3=O)cc1)OC[C@H](O)c1cc(Cl)sc12` [Compound 777] has an IC50 of less than 100 nM.
`C[C@H]1C[C@@]2(CCN1Cc1cnn(CC(O)COCC(F)(F)F)c1)OCCc1c2sc(C(F)(F)F)c1CO` (stereo partly drawn) [Compound 893] showed an IC50 of less than 100 nM.
With `CCc1cc2c(s1)CCOC21CCN(Cc2cn(CC(O)CC)nn2)CC1` (stereo not drawn) [Compound 1084] the IC50 was 500 to 1000 nM.
With `Cc1ncccc1CN1CC[C@]2(C[C@@H]1C)OCCc1c2sc(Cl)c1CO` [Compound 736] the IC50 was 500 to 1000 nM.
`CCc1cc2c(s1)CCO[C@@]21CCN(Cc2cn(CCS(=O)(=O)NCC(C)O)nn2)[C@@H](C)C1` (stereo partly drawn) [Compound 7, 2-[4-[[(2′S,4R)-2-ethyl-2′-methyl-spiro[6,7-dihydrothieno[3,2-c]pyran-4,4′-piperidine]-1′-yl]methyl]triazol-1-yl]-N-(2-hydroxypropyl)ethanesulfonamide] gave an IC50 of less than 100 nM.
For `C[C@H]1C[C@@]2(CCN1CC1CCC(=O)N1)OCCc1cc(CC(F)F)sc12` (stereo partly drawn) [Compound 619], the IC50 was 100 to 500 nM.
`C[C@H]1C[C@@]2(CCN1Cc1cnn(CCS(C)(=O)=O)c1)OCC(O)c1cc(Cl)sc12` (stereo partly drawn) [Compound 767, (2′S,7R)-2-chloro-2′-methyl-1′-[[1-(2-methylsulfonylethyl)pyrazol-4-yl]methyl]spiro[4,5-dihydrothieno[2,3-c]pyran-7,4′-piperidine]-4-ol] was tested, and the IC50 was less than 100 nM.
Compound `CNC(=O)[C@@H](O)CN1CC[C@]2(C[C@@H]1C)OCCc1cc(Cl)sc12` [Compound 710, (2S)-3-[(2′S, 7R)-2-chloro-2′-methyl-spiro[4,5-dihydrothieno[2,3-c]pyran-7,4′-piperidine]-1′-yl]-2-hydroxy-N-methyl-propanamide] has an IC50 of 500 to 1000 nM.
In the case of `C[C@H]1CC2(CCN1Cc1cnn(C)c1)OC(CO)Cc1sc(Cl)cc12` (stereo partly drawn) [Compound 530], the IC50 is reported as less than 100 nM.
With `CCc1cc2c(s1)CCO[C@@]21CCN(Cc2cnc(NC(CO)CO)nc2)[C@@H](C)C1` [Compound 222] the IC50 was less than 100 nM.
`CCc1cc2c(s1)CCO[C@@]21CCN(C[C@H]2C[C@@H](NC(=O)c3cnn(CC(F)(F)F)c3)C2)[C@@H](C)C1` [Compound 310] showed an IC50 of 100 to 500 nM.
`CCc1cc2c(s1)CCO[C@@]21CCN(Cc2cn(Cc3cc(C)n[nH]3)nn2)[C@@H](C)C1` [Compound 64] gave an IC50 of less than 100 nM.
`C[C@H]1C[C@@]2(CCN1Cc1cnn(CC(C)(O)C(=O)NC3CC3)c1)OCCc1c2sc(C(F)(F)F)c1CO` (stereo partly drawn) [Compound 991, N-cyclopropyl-2-hydroxy-3-[4-[[(2′S, 7R)-3-(hydroxymethyl)-2′-methyl-2-(trifluoromethyl)spiro[4,5-dihydrothieno[2,3-c]pyran-7,4′-piperidine]-1′-yl]methyl]pyrazol-1-yl]-2-methyl-propanamide] gave an IC50 of less than 100 nM.
For `CCc1cc2c(s1)CCO[C@@]21CCN(C[C@H]2C[C@@H](NS(=O)(=O)c3ccccc3OC)C2)[C@@H](C)C1` [Compound 404], the IC50 was less than 100 nM.
With `CCc1cc2c(s1)CCO[C@@]21CCN(Cc2cn(CCNC(=O)c3ccncc3)nn2)[C@@H](C)C1` [Compound 42] the IC50 was less than 100 nM.
`CCc1cc2c(s1)CCO[C@@]21CCN(Cc2cn(C(C)COC)nn2)[C@@H](C)C1` (stereo partly drawn) [Compound 130] gave an IC50 of 100 to 500 nM.
Compound `CCc1cc2c(s1)CCO[C@@]21CCN(Cc2ccc(N[C@@H](C)C(C)(C)O)nc2)[C@@H](C)C1` [Compound 211] has an IC50 of less than 100 nM.
In the case of `C[C@H]1C[C@@]2(CCN1CC1CCOCC1)OCCc1cc(Cl)sc12` [Compound 685], the IC50 is reported as 500 to 1000 nM.
`CC(O)Cn1cc(CN2CC[C@]3(C[C@@H]2C)OC[C@](O)(C(F)F)c2cc(Cl)sc23)nn1` (stereo partly drawn) [Compound 837] was tested, and the IC50 was less than 100 nM.
Compound `CCc1cc2c(s1)CCO[C@@]21CCN(CC2CN(S(=O)(=O)CCO)C2)[C@@H](C)C1` [Compound 492] has an IC50 of 100 to 500 nM.
Compound `CCc1cc2c(s1)CCO[C@@]21CCN(Cc2cn(C(CO)[C@H](C)O)nn2)[C@@H](C)C1` (stereo partly drawn) [Compound 193] has an IC50 of 500 to 1000 nM.
In the case of `C[C@H]1C[C@@]2(CCN1CC1CCCO1)OCCc1cc(CC(F)F)sc12` (stereo partly drawn) [Compound 586], the IC50 is reported as 500 to 1000 nM.
`CCC1=CC2=C(CCO[C@@]23CCN(Cc2cn(CCS(C)(=O)=O)nn2)[C@@H](C)C3)S1(=O)=O` [Compound 497, (2′S,4R)-2-ethyl-2′-methyl-1′-[[1-(2-methylsulfonylethyl)triazol-4-yl]methyl]spiro[6,7-dihydrothieno[3,2-c]pyran-4,4′-piperidine]1,1-dioxide] was tested, and the IC50 was 100 to 500 nM.
For `CCc1cc2c(s1)CCO[C@@]21CCN(CC2CN(C(=O)c3cc(C(F)F)[nH]n3)C2)[C@@H](C)C1` [Compound 461], the IC50 was less than 100 nM.
With `C[C@H]1C[C@@]2(CCN1Cc1cnn(CCS(C)(=O)=O)c1)OCC(O)c1cc(C(F)(F)C(F)F)sc12` (single isomer, unassigned) [Compound 1013] the IC50 was less than 100 nM.
Work on `C[C@H]1C[C@@]2(CCN1Cc1cnn(C[C@@H](O)C(C)(C)O)c1)OC[C@@H](O)c1cc(C(F)(F)F)sc12` [Compound 890, (2R)-1-[4-[[(2′S,4S,7R)-4-hydroxy-2′-methyl-2-(trifluoromethyl)spiro[4,5-dihydrothieno[2,3-c]pyran-7,4′-piperidine]-1′-yl]methyl]pyrazol-1-yl]-3-methyl-butane-2,3-diol] yielded an IC50 of less than 100 nM.
For `CCc1cc2c(s1)CCOC21CCN(Cc2cn(CC3(C)COCCO3)nn2)C(C)C1` (stereo not drawn) [Compound 102], the IC50 was less than 100 nM.
